Assay results from paper PMC8786778 (Pharmacological reports : PR, 2021).
Where two headings read alike, the source gives them in different places.

Columns and labels:
Type in all cases: cell-based
Jurkat = test: Differential nuclear staining (DNS) cytotoxicity assay; details: Homo sapiens, Jurkat, 48 h
Text: (§1) All cell lines were obtained commercially from ATCC (American Type Culture Collection). Several cancer and non-cancerous cell lines were used for this analysis. […] Solid tumor cancer cell lines included MDA-MB-231 (Adenocarcinoma; HTB-26) cultured in DMEM medium, HT-29 (Colorectal Adenocarcinoma; HTB-38) cultured in McCoy’s 5A medium, and COLO 205 (Colorectal Adenocarcinoma; CCL-222) cultured in RPMI-1640 medium. Non-cancerous cell lines included Hs27 (No disease, foreskin; CRL-1634) cultured in DMEM medium and MCF-10A (Fibrocystic Disease; CRL-10317) cultured in DMEM/F12 medium supplemented with 20 ng/ml epidermal growth factor, 0.5 μg/ml hydrocortisone, and 10 μg/ml insulin. Additionally, all media used for cell culture was supplemented with 10% heat-inactivated fetal bovine serum (FBS), and a mixture of 25 μg/ml amphotericin B, 1,000 U/ml penicillin, and 1,000 μg/ml streptomycin. The HL-60 cell line was supplemented with 20% FBS and the same antibiotic mixture described. All cell lines were grown in an incubator supplemented with 5% CO2 at 37 °C.
(§2) Cytotoxic activity was evaluated through the DNS assay [17, 18]. This assay involves labeling live and dead cells with two nucleic acid intercalators, Hoechst 33342 and propidium iodide (PI). Hoechst 33342 stains all cells (healthy and dead), but PI stains only dead or dying cells with a compromised cell membrane [17, 18]. For the experiment, each cell line was plated at a density of 10,000 cells per well (96-well plate) in 100 μl media and placed in the incubator overnight under cell culture conditions. Cells were then treated with varying concentrations of the compound of interest for 48 h. […] For quantitative analysis, images were segmented through the IN Cell Analyzer Workstation 3.2 software (GE Healthcare). […] Each compound concentration and each control were assessed in triplicate. […] SCI was calculated using the following equation: CC50 of the non-cancer cell line/CC50 of the cancer cell line [20].

[1] = as above; details: human, Hs27 cells (non-cancerous) versus Jurkat cells (cancer); CC50 Hs27 / CC50 Jurkat; read-out: SCI (Selective Cytotoxicity Index)
Text: as §1, §2

[2] = as above; details: human, MCF-10A non-cancerous cells
Text: as §1
Cytotoxic activity was evaluated through the DNS assay [17, 18]. […] For quantitative analysis, images were segmented through the IN Cell Analyzer Workstation 3.2 software (GE Healthcare). […] Each compound concentration and each control were assessed in triplicate.

CCRF-CEM = test: as above; details: Homo sapiens, CCRF-CEM, 48 h
Text: (§3) All cell lines were obtained commercially from ATCC (American Type Culture Collection). Several cancer and non-cancerous cell lines were used for this analysis. […] Solid tumor cancer cell lines included MDA-MB-231 (Adenocarcinoma; HTB-26) cultured in DMEM medium, HT-29 (Colorectal Adenocarcinoma; HTB-38) cultured in McCoy’s 5A medium, and COLO 205 (Colorectal Adenocarcinoma; CCL-222) cultured in RPMI-1640 medium. Non-cancerous cell lines included Hs27 (No disease, foreskin; CRL-1634) cultured in DMEM medium and MCF-10A (Fibrocystic Disease; CRL-10317) cultured in DMEM/F12 medium supplemented with 20 ng/ml epidermal growth factor, 0.5 μg/ml hydrocortisone, and 10 μg/ml insulin. Additionally, all media used for cell culture was supplemented with 10% heat-inactivated fetal bovine serum (FBS), and a mixture of 25 μg/ml amphotericin B, 1,000 U/ml penicillin, and 1,000 μg/ml streptomycin. […] All cell lines were grown in an incubator supplemented with 5% CO2 at 37 °C.
(§4) Cytotoxic activity was evaluated through the DNS assay [17, 18]. This assay involves labeling live and dead cells with two nucleic acid intercalators, Hoechst 33342 and propidium iodide (PI). Hoechst 33342 stains all cells (healthy and dead), but PI stains only dead or dying cells with a compromised cell membrane [17, 18]. For the experiment, each cell line was plated at a density of 10,000 cells per well (96-well plate) in 100 μl media and placed in the incubator overnight under cell culture conditions. Cells were then treated with varying concentrations of the compound of interest for 48 h. Two hours before incubation elapsed, 10 μl of a dye mixture consisting of phosphate-buffered saline (PBS), Hoechst 33342 (1 μg/ml final; Invitrogen, H1399), and PI (1 μg/ml final; Invitrogen, P1304MP) was added to each well. […] For quantitative analysis, images were segmented through the IN Cell Analyzer Workstation 3.2 software (GE Healthcare). […] Each compound concentration and each control were assessed in triplicate. […] SCI was calculated using the following equation: CC50 of the non-cancer cell line/CC50 of the cancer cell line [20].

[3] = as above; details: human, Hs27 cells (non-cancerous) versus CCRF-CEM cells (cancer); CC50 Hs27 / CC50 CCRF-CEM; read-out: SCI (Selective Cytotoxicity Index)
Text: as §3, §4

HMOX-1 in HL-60 cells = test: RT-qPCR gene expression; details: HL-60, 6 h, P3 […], P4 4 μM, P5 4 μM, normalised to ACTB, 2^−ΔΔCt, two independent experiments
Experimental: (§5) After the incubation period elapsed, cell pellets were washed by centrifuging at 262g for 5 min and re-suspending in 1 ml of PBS. Dry cell pellets were used for RNA extraction. RNA was extracted immediately according to the manufacturer’s instructions of the RNeasy Mini Kit (Qiagen; 74104). A QIAshredder was used to lyse the cells, and the optional DNase I digestion was also accomplished. Three biological replicates were used for each treatment. RNA was stored at −80 °C overnight, then the RNA was used to synthesize cDNA using the RT^2 HT First Strand Kit (Qiagen; 330,411). The amount of RNA used per sample was 500 ng, which was quantified using a NanoDrop ND-1000 system (ThermoFisher Scientific). RNA was diluted using RNase-free water to obtain the desired concentration (500 ng) in 9 μl. As per the manufacturer’s protocol, we incubated 9 μl of the sample with 6 μl GE2 (gDNA elimination buffer) for 5 min at 37 °C, then we added 6 μl BC4 Reverse Transcriptase Mix and incubated for 15 min at 42 °C, 5 min at 95 °C and, finally, a 4 °C hold. […] For data analysis, gene expression levels were normalized to the housekeeping gene (ACTB) and quantified using the comparative Ct method (2^−ΔΔCt). Fold change differences were calculated by comparing gene expression levels of compound treatment versus vehicle control.

KCL22 = test: Differential nuclear staining (DNS) cytotoxicity assay; details: Homo sapiens
Text: as §1, §2

[4] = as above; details: human, Hs27 cells (non-cancerous) versus KCL22 cells (cancer); CC50 Hs27 / CC50 KCL22; read-out: SCI (Selective Cytotoxicity Index)
Text: as §1, §2

[5] = DNS assay, summary over the non-cancerous cell lines; details: human, Hs27 and MCF-10A non-cancerous cells, mean of two non-cancerous cell lines, read-out: average CC50 towards Hs27 and MCF-10A
Text: (§6) All cell lines were obtained commercially from ATCC (American Type Culture Collection). Several cancer and non-cancerous cell lines were used for this analysis. […] Solid tumor cancer cell lines included MDA-MB-231 (Adenocarcinoma; HTB-26) cultured in DMEM medium, HT-29 (Colorectal Adenocarcinoma; HTB-38) cultured in McCoy’s 5A medium, and COLO 205 (Colorectal Adenocarcinoma; CCL-222) cultured in RPMI-1640 medium. Non-cancerous cell lines included Hs27 (No disease, foreskin; CRL-1634) cultured in DMEM medium and MCF-10A (Fibrocystic Disease; CRL-10317) cultured in DMEM/F12 medium supplemented with 20 ng/ml epidermal growth factor, 0.5 μg/ml hydrocortisone, and 10 μg/ml insulin. Additionally, all media used for cell culture was supplemented with 10% heat-inactivated fetal bovine serum (FBS), and a mixture of 25 μg/ml amphotericin B, 1,000 U/ml penicillin, and 1,000 μg/ml streptomycin. The HL-60 cell line was supplemented with 20% FBS and the same antibiotic mixture described. […]
(§7) Cytotoxic activity was evaluated through the DNS assay [17, 18]. […] For quantitative analysis, images were segmented through the IN Cell Analyzer Workstation 3.2 software (GE Healthcare). […] Each compound concentration and each control were assessed in triplicate. […] SCI was calculated using the following equation: CC50 of the non-cancer cell line/CC50 of the cancer cell line [20].

[6] = Differential nuclear staining (DNS) cytotoxicity assay; details: human, Hs27 non-cancerous cells
Text: as §6, §7

CHAC1 in HL-60 cells = test: RT-qPCR gene expression; details: HL-60, 6 h, P3 […], P4 4 μM, P5 4 μM, normalised to ACTB, 2^−ΔΔCt
Experimental: as §5

MDA-MB-231 = test: Differential nuclear staining (DNS) cytotoxicity assay; details: Homo sapiens, MDA-MB-231, 48 h
Text: as §3, §4

[7] = as above; details: human; CC50 MCF-10A / CC50 MDA-MB-231; read-out: SCI (Selective Cytotoxicity Index)
Text: as §3, §4

MYC in HL-60 cells = test: RT-qPCR gene expression; details: HL-60, 6 h, P3 […], P4 4 μM, P5 4 μM, normalised to ACTB, 2^−ΔΔCt
Experimental: as §5

K562 = test: Differential nuclear staining (DNS) cytotoxicity assay; details: Homo sapiens, K562, 48 h
Text: as §1, §2

[8] = as above; details: human, Hs27 cells (non-cancerous) versus K562 cells (cancer); CC50 Hs27 / CC50 K562; read-out: SCI (Selective Cytotoxicity Index)
Text: as §1, §2

[9] = as above; details: human, Hs27 cells (non-cancerous) versus HL-60 cells (cancer); CC50 Hs27 / CC50 HL-60; read-out: SCI (Selective Cytotoxicity Index)
Experimental: (§8) All cell lines were obtained commercially from ATCC (American Type Culture Collection). Several cancer and non-cancerous cell lines were used for this analysis. […] Non-cancerous cell lines included Hs27 (No disease, foreskin; CRL-1634) cultured in DMEM medium and MCF-10A (Fibrocystic Disease; CRL-10317) cultured in DMEM/F12 medium supplemented with 20 ng/ml epidermal growth factor, 0.5 μg/ml hydrocortisone, and 10 μg/ml insulin. Additionally, all media used for cell culture was supplemented with 10% heat-inactivated fetal bovine serum (FBS), and a mixture of 25 μg/ml amphotericin B, 1,000 U/ml penicillin, and 1,000 μg/ml streptomycin. The HL-60 cell line was supplemented with 20% FBS and the same antibiotic mixture described. All cell lines were grown in an incubator supplemented with 5% CO2 at 37 °C.
(§9) Cytotoxic activity was evaluated through the DNS assay [17, 18]. This assay involves labeling live and dead cells with two nucleic acid intercalators, Hoechst 33342 and propidium iodide (PI). Hoechst 33342 stains all cells (healthy and dead), but PI stains only dead or dying cells with a compromised cell membrane [17, 18]. For the experiment, each cell line was plated at a density of 10,000 cells per well (96-well plate) in 100 μl media and placed in the incubator overnight under cell culture conditions. Cells were then treated with varying concentrations of the compound of interest for 48 h. Two hours before incubation elapsed, 10 μl of a dye mixture consisting of phosphate-buffered saline (PBS), Hoechst 33342 (1 μg/ml final; Invitrogen, H1399), and PI (1 μg/ml final; Invitrogen, P1304MP) was added to each well. The IN Cell 2000 analyzer, a high-content analyzer (HCA), was used to image the plates (GE Healthcare). For quantitative analysis, images were segmented through the IN Cell Analyzer Workstation 3.2 software (GE Healthcare). […] Each compound concentration and each control were assessed in triplicate.
(§10) For the experiments conducted, the concentrations used correspond to either CC50 or CC50 × 2 in the specified cell line. […] Therefore, we used a CC10 and a CC30 concentration.

HL-60 = test: as above; details: for CC50: Homo sapiens
Experimental: as §8, §9, §10

HL-60 cells [10] = test: Mitochondrial membrane potential (ΔΨm) polychromatic assay (JC-1); details: HL-60, 5 h, 4 μM
Experimental: The cationic JC-1 (5′,6,6′-tetrachloro-1,1′,3,3′-tetraethylben zimidazolylcarbocyanine iodide) dye can be used to monitor mitochondrial membrane potential (Invitrogen; M34152). A red signal (JC-1 aggregates) indicates an intact polarized mitochondrial membrane, while a green signal (JC-1 monomers) indicates a depolarized mitochondrial membrane. […] A vehicle, positive, and negative control (as previously described) were included as well. Following incubation, cells were collected and stained per the manufacturer’s instructions with a final concentration of 2 μM JC-1 dye. Samples were then examined utilizing flow cytometry (Gallios; Beckman Coulter). Analysis of the subsequent data was completed using Kaluza software (Kaluza Analysis Software; Beckman Coulter).

[11] = test system: nine tumorigenic cell lines; test: DNS assay, summary over the cancer cell line panel; details: for CC50: 48 h, read-out: average CC50 towards the nine tumorigenic cell lines
Experimental: Several cancer and non-cancerous cell lines were used for this analysis. […] Additionally, all media used for cell culture was supplemented with 10% heat-inactivated fetal bovine serum (FBS), and a mixture of 25 μg/ml amphotericin B, 1,000 U/ml penicillin, and 1,000 μg/ml streptomycin. […] All cell lines were grown in an incubator supplemented with 5% CO2 at 37 °C.
Cytotoxic activity was evaluated through the DNS assay [17, 18]. […] For the experiment, each cell line was plated at a density of 10,000 cells per well (96-well plate) in 100 μl media and placed in the incubator overnight under cell culture conditions. Cells were then treated with varying concentrations of the compound of interest for 48 h. […] The IN Cell 2000 analyzer, a high-content analyzer (HCA), was used to image the plates (GE Healthcare). For quantitative analysis, images were segmented through the IN Cell Analyzer Workstation 3.2 software (GE Healthcare). […] Each compound concentration and each control were assessed in triplicate.

[12] = Differential nuclear staining (DNS) cytotoxicity assay; details: human, Hs27 cells (non-cancerous) versus Ramos cells (cancer); CC50 Hs27 / CC50 Ramos; read-out: SCI (Selective Cytotoxicity Index)
Text: as §3, §4

Ramos = test: as above; details: Homo sapiens, Ramos, 48 h
Text: as §3, §4

HL-60 cells [13] = test: Reactive oxygen species (ROS) assay (carboxy-H2DCFDA); details: HL-60, 18 h
Experimental: Reactive oxygen species (ROS) generation can be quantified using the 6-carboxy-2',7'-dichlorodihydrofluorescein diacetate (carboxy-H2DCFDA) dye (Invitrogen; Molecular Probes, C400) [19, 22]. This non-fluorescent dye shifts to a green fluorescent form as oxidation, induced by ROS, occurs within the cell. Therefore, a green fluorescent signal, corresponding to the oxidized form of carboxy-H2DCFDA, indicates ROS generation. Cells (HL-60) were plated overnight at a density of 100,000 cells in 1 ml. […] Samples were collected, centrifuged at 262g for 5 min, and re-suspended in 1 ml PBS to remove the complete medium. Then, cells were loaded with a final concentration of 10 μM carboxy-H2DCFDA dye for 45 min at 37 °C. Following incubation with dye, cells were centrifuged at 262g for 5 min and re-suspended in 500 μl PBS. Then, samples were processed using flow cytometry (Gallios; Beckman Coulter). Data analysis was completed with the Kaluza software (Kaluza Analysis Software; Beckman Coulter). Controls used were the same as mentioned before (0.1% v/v DMSO, 1 mM H2O2, and untreated cells) with an additional unstained (not loaded with dye) control to observe the normal population of cells.

HL-60 cells [14] = test: Cell cycle analysis with NIM-DAPI; details: HL-60, 72 h
Experimental: Controls included were a vehicle (0.1% v/v DMSO), positive (1 mM H2O2), and negative (untreated cells) control. Subsequently, cells were collected in flow cytometry tubes and centrifuged at 262g for 5 min. Then, the supernatant was removed, and the cell pellet was re-suspended in a mixture of 100 μl of PBS and 200 μl of NIM-DAPI. Samples were immediately read and analyzed through flow cytometry (Gallios & Kaluza Analysis Software; Beckman Coulter). Approximately 10,000 events were acquired per sample. Data are represented as plots that display peaks (Fig. 6e) which represent fragments of DNA (Sub-G0/1 phase), cells before they replicate DNA (G0/1 phase), active replication of DNA (S phase), and post-replicative stage while entering mitosis (G2M phase) [23].

HT-29 = test: Differential nuclear staining (DNS) cytotoxicity assay; details: Homo sapiens, HT-29, 48 h
Text: as §3, §4

[15] = as above; details: human, Hs27 cells (non-cancerous) versus HT-29 cells (cancer); CC50 Hs27 / CC50 HT-29; read-out: SCI (Selective Cytotoxicity Index)
Text: as §3, §4

ATF3 in HL-60 cells = test: RT-qPCR gene expression; details: HL-60, 6 h, P3 […], P4 4 μM, P5 4 μM, normalised to ACTB, 2^−ΔΔCt
Experimental: as §5

[16] = test system: caspase-3 activation in HL-60 cells; test: Caspase-3 assay (NucView 488); details: HL-60, 8 h; concentration not given
COLO 205 = test: Differential nuclear staining (DNS) cytotoxicity assay; details: Homo sapiens, COLO 205, 48 h
Text: as §3, §4

[17] = as above; details: human, Hs27 cells (non-cancerous) versus COLO 205 cells (cancer); CC50 Hs27 / CC50 COLO 205; read-out: SCI (Selective Cytotoxicity Index)
Text: as §3, §4

PMAIP1 in HL-60 cells = test: RT-qPCR gene expression; details: HL-60, 6 h, P3 […], P4 4 μM, P5 4 μM, normalised to ACTB, 2^−ΔΔCt
Experimental: as §5

HL-60 cells [18] = test: Annexin V-FITC assay (phosphatidylserine externalization); details: HL-60, 24 h, CC50 concentration (P3 […], P4 2 μM, P5 2 μM)
Experimental: The annexin V-FITC assay was used to evaluate the induction of apoptosis (Beckman Coulter; IM3546) [21]. HL-60 cells were seeded at a density of 100,000 cells in 1 ml complete medium. Cells were treated with the three compounds of interest for 24 h. […] Controls used were a vehicle control (0.1% v/v DMSO), an apoptosis-inducing positive control (1 mM H2O2), and an untreated cell negative control. Following treatment, cells were collected and stained with both PI and annexin V-FITC according to the manufacturer’s instructions (Beckman Coulter; IM3546). Samples were immediately read by flow cytometry (Gallios; Beckman Coulter). Data analysis was accomplished with Kaluza software (Kaluza Analysis Software; Beckman Coulter).

[19] = HL-60, concentration used for 72 h cell cycle analysis

## O=C1/C(=C/c2ccc(O)c(CN3CCOCC3)c2)CNC/C1=C\c1ccc(O)c(CN2CCOCC2)c1 [P5]
Jurkat; DNS assay, read-out: CC50
  CC50: 910 nM
[1]
  selectivity ratio at 48 h: 6.05
[2]
  CC50 at 48 h: 2180 nM
CCRF-CEM; DNS assay, read-out: CC50
  CC50: 650 nM
[3]
  selectivity ratio at 48 h: 8.42
HMOX-1 in HL-60 cells
  fold-change difference of HMOX-1 expression versus vehicle: 2464.89
KCL22; KCL-22, KCL22, 48 h, DNS assay, read-out: CC50
  CC50: 1570 nM
[4]
  selectivity ratio at 48 h: 3.49
[5]
  CC50 at 48 h: 3840 nM
[6]
  CC50 at 48 h: 5500 nM
CHAC1 in HL-60 cells
  fold-change difference of CHAC1 expression versus vehicle: 106.96
MDA-MB-231; DNS assay, read-out: CC50
  CC50: 1740 nM
[7]
  selectivity ratio at 48 h: 1.26
MYC in HL-60 cells
  fold-change difference of MYC expression versus vehicle: −4.15
K562; DNS assay, read-out: CC50
  CC50: 4250 nM
[8]
  selectivity ratio at 48 h: 1.29
[9]
  selectivity ratio at 48 h: 7.47
HL-60; [19]
  CC10: 400 nM
  CC30: 1200 nM
HL-60; HL-60, 48 h, DNS assay, read-out: CC50
  CC50: 740 nM
HL-60; HL-60, value used to set treatment concentrations, read-out: CC50 in HL-60 (concentrations for cell death induction)
  CC50: 2000 nM
HL-60 cells [10]
  increase in the cell population with a depolarized mitochondrial membrane in comparison to DMSO: ~ 10%
[11]; DNS assay, mean over nine cell lines
  CC50: 1520 nM
[11]; ratio of average CC50 values, nine tumorigenic cell lines
  times more potent than melphalan: 11.7
[12]
  selectivity ratio at 48 h: 5.19
Ramos; DNS assay, read-out: CC50
  CC50: 1060 nM
HL-60 cells [13]; P3 […], P4 2 μM, P5 2 μM
  increase of cells positive for ROS production compared to DMSO: ~ 38%
HL-60 cells [13]; twice the concentration (P3 […], P4 4 μM, P5 4 μM)
  increase of cells positive for ROS production compared to DMSO: ~ 65%
HL-60 cells [14]; 0.4 μM
  increase in the percentage of cells arrested at the G2/M phase versus DMSO: ~ 9%
HL-60 cells [14]; printed as double the CC50 concentration
  change in the percentage of cells in the S phase compared to DMSO: significant decrease
HT-29; DNS assay, read-out: CC50
  CC50: 1930 nM
[15]
  selectivity ratio at 48 h: 2.85
ATF3 in HL-60 cells
  fold-change difference of ATF3 expression versus vehicle: 204.56
[16]
  cells with active caspase-3, as compared to DMSO: ~ 49%
COLO 205; DNS assay, read-out: CC50
  CC50: 800 nM
[17]
  selectivity ratio at 48 h: 6.87
PMAIP1 in HL-60 cells
  fold-change difference of PMAIP1 expression versus vehicle: 79.50
HL-60 cells [18]
  increase of Annexin V-FITC-positive cells in comparison to DMSO: ~ 30%

## N[C@@H](Cc1ccc(N(CCCl)CCCl)cc1)C(=O)O [Melphalan, reference compound]
Jurkat
  CC50: 1910 nM
CCRF-CEM
  CC50: 3170 nM
KCL22; KCL-22, 48 h
  CC50: 81300 nM
MDA-MB-231
  CC50: 9230 nM
K562
  CC50: 19600 nM
HL-60; HL-60, 48 h
  CC50: 1570 nM
[11]
  CC50: 17800 nM
Ramos
  CC50: 2050 nM
HT-29
  CC50: 21100 nM
COLO 205
  CC50: 20400 nM
